# Paper PMC5793070, “Bacillibactin and Bacillomycin Analogues with Cytotoxicities against Human Cancer Cell Lines from Marine Bacillus sp. PKU-MA00093 and PKU-MA00092” (Marine Drugs, 2018)
# Like-named read-outs stand apart in the source and are kept apart here. Numbered stars: 1 amine (or outer) side, 2 acyl side, 3 side chain; on linkers, the order of the positions; unused ones are H or OH. Square brackets hold non-standard residues; d marks the D form. Peptide text beside a SMILES is read from it. Hexadecanoyl(3R-amino) = CCCCCCCCCCCCC[C@H](CC(=O)[*:2])N[*:1]; X1 = CCC(C)CCCCCCCCCC[C@H](CC(=O)[*:2])N[*:1]; X3 = CC(C)CCCCCCCCCC[C@H](CC(=O)[*:2])N[*:1]
# Key:
# [1] = system: liver cancer cell line HepG2; assay: MTT cytotoxicity assay against HepG2
# Method: (§1) Two human cancer cell lines, liver cancer cell line HepG2, and breast cancer cell line MCF7, were used in the assays.
# (§2) HepG2 and MCF7 cell lines were purchased from Peking Union Medical College, Cell Bank (Beijing, China). In this study, the cells were grown in Dulbecco’s modified Eagle’s medium (Hyclone, Waltham, MA, USA), supplemented with 10% fetal bovine serum (FBS, PAN Biotech, Aidenbach, Germany), penicillin (100 U/mL), and streptomycin (100 µg/mL) in a humidified incubator containing 95% air and 5% CO2 at 37 °C. Cell viability was detected by MTT colorimetric assay. Briefly, the cells were treated with different concentrations of compounds (in DMSO stock) for 48 h, with taxol as the positive control. Then, culture supernatants were replaced with medium containing 0.5 mg/mL MTT for 4 h. The supernatant was removed and 100 μL of dimethyl sulfoxide was added. Absorbance was detected at 550 nm and cell viability was expressed as the mean percentage of the absorbance in treated vs. control cells. Different concentrations of compounds ranging from 0.1 to 40 µM were tested and each of the concentration was tested in parallel triplicate. Six concentration points in the slope region were used in the calculation of IC50 values. The IC50 values were calculated from the concentration–response curves that were generated by nonlinear regression with Graph Pad Prism 5 software (Graph Pad Software, Inc., San Diego, CA, USA).
# [2] = system: breast cancer cell line MCF7; assay: MTT cytotoxicity assay against MCF7
# Method: as §1, §2
# [3] = system: human cancer cell line A498; conditions: lipopeptide proposed as bacillomycin D only based on LC-MS analysis; result in words; cited from earlier work
# Method: (§3) Compounds 1–10 were tested for their antitumor activities.
# [4] = system: human cancer cell line A549; conditions: lipopeptide proposed as bacillomycin D only based on LC-MS analysis; result in words; cited from earlier work
# Method: as §3
# [5] = system: human cancer cell line HCT-15; conditions: lipopeptide proposed as bacillomycin D only based on LC-MS analysis; result in words; cited from earlier work
# Method: as §3
compound,measurement,setting,value
"CCC(C)CCCCCCCCCC[C@@H]1CC(=O)N[C@@H](CC(N)=O)C(=O)N[C@H](Cc2ccc(O)cc2)C(=O)N[C@H](CC(N)=O)C(=O)N2CCC[C@H]2C(=O)N[C@@H](CCC(=O)O)C(=O)N[C@H](CO)C(=O)N[C@@H]([C@@H](C)O)C(=O)N1 (stereo partly shown) [Compound 10, anteiso-C17 bacillomycin D] (cyclo(E[dS]T[X1]N[dY][dN]P))",IC50,"[1]; human, 48 h",> 10 µM
same,IC50,"[2]; human, 48 h",7.2 ± 0.2 µM
"CC(=O)O[C@H]1C(=O)[C@@]2(C)[C@H]([C@H](OC(=O)c3ccccc3)[C@]3(O)C[C@H](OC(=O)[C@H](O)[C@@H](NC(=O)c4ccccc4)c4ccccc4)C(C)=C1C3(C)C)[C@]1(OC(C)=O)CO[C@@H]1C[C@@H]2O [Taxol, reference compound]",IC50,"[1]; Homo sapiens, HepG2, 48 h, read-out: Cytotoxicity (IC50 Values in µM), HepG2",0.075 ± 0.004 µM
same,IC50,"[2]; Homo sapiens, MCF7, 48 h, read-out: Cytotoxicity (IC50 Values in µM), MCF7",0.043 ± 0.003 µM
bacillomycin D [Compound 5],"inhibition rate, HepG2","[1]; HepG2, at the concentration of 10 µM, MTT, 48 h, described as no cytotoxicities",below 20%
same,"inhibition rate, MCF7","[2]; MCF7, at the concentration of 10 µM, MTT, 48 h, described as no cytotoxicities",below 20%
same,inhibitory activities against A498,[3],inhibitory activities
same,inhibitory activities against A549,[4],inhibitory activities
same,inhibitory activities against HCT-15,[5],inhibitory activities
"CCCCCCCCCCCCC[C@@H]1CC(=O)N[C@@H](CC(N)=O)C(=O)N[C@H](Cc2ccc(O)cc2)C(=O)N[C@H](CC(N)=O)C(=O)N2CCC[C@H]2C(=O)N[C@@H](CCC(=O)O)C(=O)N[C@H](CO)C(=O)N[C@@H]([C@@H](C)O)C(=O)N1 [Compound 9, C16 bacillomycin D] (cyclo(E[dS]T[Hexadecanoyl(3R-amino)]N[dY][dN]P))",IC50,"[1]; human, 48 h",4.9 ± 0.2 µM
same,IC50,"[2]; human, 48 h",3.3 ± 0.1 µM
"CC(C)CCCCCCCCCC[C@@H]1CC(=O)N[C@@H](CC(N)=O)C(=O)N[C@H](Cc2ccc(O)cc2)C(=O)N[C@H](CC(N)=O)C(=O)N2CCC[C@H]2C(=O)N[C@@H](CCC(=O)O)C(=O)N[C@H](CO)C(=O)N[C@@H]([C@@H](C)O)C(=O)N1 [Compound 8, iso-C16 bacillomycin D] (cyclo(E[dS]T[X3]N[dY][dN]P))",IC50,"[1]; human, 48 h",5.1 ± 0.2 µM
same,IC50,"[2]; human, 48 h",2.9 ± 0.1 µM
